Square brackets hold non-standard residues; d marks the D form. Peptide text beside a SMILES is read from it. * marks the point of attachment. 5FAM = O=C1OC2(c3ccc(O)cc3Oc3cc(O)ccc32)c2ccc(C(=O)*)cc21
Legend:
Aβ1–42 fibrils [1] = target: T1, Aβ1–42 fibrils (Homo sapiens, UniProt P05067); assay: ELISA, compound binding to Aβ1–42 fibrils; conditions: 10 µg/ml compound; optical density after pNPP incubation; value of one single experiment only
T1 construct: Aβ1–42 was dissolved in hexafluoroisopropanol (HFIP)
T1 sequence (P05067 672-713 limits assumed): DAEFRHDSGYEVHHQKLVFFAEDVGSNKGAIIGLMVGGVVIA
Method: Aβ1–42 peptide film was prepared from lyophilized powder (Bachem). The powder was reconstituted in HFIP to a final concentration of 1 mM, sonicated for 15 min at room temperature (RT), agitated overnight (ON), and aliquoted into non-siliconized microcentrifuge tubes (12 µl corresponding to 55 µg). The HFIP was evaporated under a stream of argon. The resulting peptide film was vacuum dried for 10 min and stored at -80°C. For direct use as peptide film, an aliquot of Aβ1–42 peptide film was reconstituted with 0.54% dimethylsulphoxide (DMSO) in phosphate buffered saline (PBS) to obtain a final concentration of 10 µg/ml and then used for the ELISA as described below. To prepare fibrils, 55 µg aliquot of peptide film was dissolved in 55 µl of 50 mM Tris-HCl, pH 7.4 and incubated at 37°C for five days. Next, the sample was centrifuged (10’000 rpm for 5 min) and the pellet was diluted in 50 mM Tris-HCl, pH 7.4.
Aβ1–42 peptide preparations were diluted in 0.05 M bicarbonate-carbonate buffer pH 9.6, to the final concentration of 10 µg/ml and coated onto ELISA plates (MaxiSorp, Nunc). After blocking (PBS; 0.05% Tween; 1% BSA), plates were incubated with 2- or 3-fold dilutions of D-compounds (starting concentration: 10 µg/ml) and incubated for 2 h at 37°C. Plates were then washed and incubated for 2 h at 37°C with the detection antibody Rabbit-a-fluorescein isothiocyanate-AP (Sigma; 1∶10’000 dilution) followed by the incubation for 2.5 h at room temperature (RT) with 1 mg/ml of phosphatase substrate (pNPP, Sigma). The absorbance signal was read at 405 nm wavelength using a Tecan plate reader (Tecan Group Lt, Männedorf, Switzerland).
ELISA plates (MaxiSorp, Nunc) were coated with anti-Aβ antibody 6E10 (Covance) at a concentration of 5 µg/ml. Either monomeric Aβ1–42 peptide film (mainly monomeric) or Aβ1–42 fibrils, which were prepared as described above, were diluted in PBS to the final concentration 10 µg/ml and mixed with 10-fold dilutions of D-peptide compounds in Eppendorf tubes (starting concentration of D-peptide compounds: 10 µg/ml). The tubes were incubated for 2 h at 37°C. Next, samples were distributed onto the ELISA plate and kept for 2 h at 37°C. Plates were washed and incubated for 2 h at 37°C with the detection antibody Rabbit-a-fluorescein isothiocyanate-AP (Sigma; 1∶10′000 dilution) following the incubation overnight (ON) at RT with 1 mg/ml of phosphatase substrate (pNPP, Sigma). The absorbance signal was read at 405 nm wavelength using the Tecan plate reader (Tecan Group Ltd, Männedorf, Switzerland).
To verify the SPR results, ELISA was employed to assay the interaction of the ACI-80 derivatives ACI-80-Kϕ, ACI-81-Kϕ, ACI-82-Kϕ, ACI-83-Kϕ, ACI-84-Kϕ, ACI-85-Kϕ, ACI-86-Kϕ, ACI-87-Kϕ, [^19F]-ACI-87-Kϕ, ACI-88-Kϕ, [^19F]-ACI-88-Kϕ, ACI-89-Kϕ, [^19F]-ACI-89-Kϕ) with Aβ1–42 fibrils and Aβ peptide film in solution containing mostly monomers and smaller oligomers (Table 4). To avoid any bias by possible conformational influences the ELISA has been carried out in two versions, once with immobilized antibody and once with immobilized Aβ1–42 as described in the methods section. Both assays yielded similar results and confirmed each other. […] Panels A and B in Figure 2 show the results for binding to Aβ1–42 fibrils and panels C and D in Figure 2 show the results for binding to freshly prepared Aβ1–42 peptide film, which contains mostly monomeric Aβ. In Table 4, the performance of the peptides is expressed relative to that of ACI-80-Kϕ.

Aβ1–42 fibrils [2] = target: T1, Aβ1–42 fibrils; assay: SPR single cycle experiments (Biacore T100), heterogeneous ligand model; assay type: binding; set-up: Rmax1 / Rmax2 / k off2: unit not given here; conditions: for Rmax2 / k off1 / k off2 / k on1 / k on2 / Rmax1: PBS pH 7.4, 25°C, 30 µl/min; for Rmax1: global fit of three lowest responding concentrations
Method: Aβ1–42 fibrils were prepared as described above. Thereafter, the sample was centrifuged for 10 min at 16000×g, the supernatant discarded and this procedure repeated for 3 times. Formation of fibrils was confirmed by a standard Thioflavin-T fluorescence assay. Aβ1–42 fibrils were covalently immobilized on a CM5 sensor chip via amine coupling. Prior to immobilization of Aβ1–42 fibrils the sample was centrifuged and fibrils resuspended in 10 mM sodium acetate buffer pH 4.0. Flow cell sensor surfaces were activated with a freshly prepared solution of 0.2 M 1-ethyl–3-(3-dimethylaminopropyl)-carbodiimide (EDC) and 0.05 M N-hydroxysuccinimide (NHS) at a constant flow rate of 10 µl/min for 420 s. Aβ1–42 fibrils (∼ 110 µM monomeric Aβ1–42) were injected for 600 s with a flow rate of 10 µl/min. Deactivation of the surface was performed by injection of 1 M ethanolamine-HCl pH 8.5 at the same flow rate and duration as in the activation step. In the reference cells the deactivation step was performed directly after the activation step. All SPR experiments were performed on a Biacore T100 system with series S CM5 sensor chips at 25°C. The system was run with the Biacore T100 Control Software Version 1.1.1. PBS (10 mM sodium phosphate buffer pH 7.4, 137 mM NaCl, 2.7 mM KCl) was chosen as running buffer (as previously during fibril formation) in order to minimize alterations of fibril organization. All buffers were sterile filtered (0.22 µm). After each docking of a sensor chip the detector was normalized with BIAnormalizing solution (70% glycerol, GE Healthcare) to compensate for slight differences in detector responses of individual sensor chips. For all interaction analyses the Type 1 reagent rack was used. Siliconized sample vials were used with their corresponding rubber caps (Type 2, GE Healthcare) to minimize evaporation effects. Throughout all runs the flow rate was set to 30 µl/min. All interaction studies were performed in single-cycle mode. Here, five different concentrations of analyte were passed through a reference cell and subsequently through flow cells with immobilized ligand within the same binding cycle for 60 seconds, starting with the lowest concentration. Successive injections were performed in the order of increasing concentrations. Each following concentration was a fivefold increase of the previous. The lowest analyte concentration was chosen to be 100 nM and therefore the following were 500, 2500, 12500 and 62500 nM. Biacore data were evaluated using BiaEvaluation 4.1.1 (GE Healthcare) and Biacore T100 Evaluation Software (GE Healthcare). Obtained binding data with compounds were double referenced. This was achieved by collecting the data in dual-channel mode with a reference flow cell connected upstream of the flow cell with immobilized Aβ1–42 fibrils and the subtraction of the obtained binding responses with a blank buffer injection (PBS).

Structure (SMILES) | binding value, binding Aβ1–42 fibrils (Aβ1–42 fibrils [1]) | Rmax2 (Aβ1–42 fibrils [2]) | k off1 (Aβ1–42 fibrils [2]) | k off2 (Aβ1–42 fibrils [2]) | k on1 (Aβ1–42 fibrils [2]) | k on2 (Aβ1–42 fibrils [2]) | Rmax1 (Aβ1–42 fibrils [2]) | dissociation constant (lowest K D of the two, words) (Aβ1–42 fibrils [2])
CC[C@@H](C)[C@@H](NC(=O)[C@@H](Cc1c[nH]cn1)NC(=O)[C@@H](CCCNC(=N)N)NC(=O)[C@@H](Cc1ccc(O)cc1)NC(=O)[C@@H](Cc1c[nH]cn1)NC(=O)[C@@H](CO)NC(=O)[C@H](N)CCC(N)=O)C(=O)N[C@H](CO)C(=O)N1CCC[C@@H]1C(=O)N[C@H](C)C(=O)N[C@H](CCC(N)=O)C(=O)N[C@H](CCCCN)C(=O)N[C@H](CCCCNC(=O)c1ccc2c(c1)C(=O)OC21c2ccc(O)cc2Oc2cc(O)ccc21)C(=O)O [ACI-87-Kϕ] (H-[dQ][dS][dH][dY][dR][dH][dI][dS][dP][dA][dQ][dK][dK](5FAM)-OH; N-terminus and C-terminus assumed) | *0.93 | 36.2 | 1.84e-3 | 0.0407 | 206 | 1.57e3 | 43.3 | –
CC[C@@H](C)[C@@H](NC(=O)[C@@H](Cc1c[nH]cn1)NC(=O)[C@@H](CCCNC(=N)N)NC(=O)[C@@H](Cc1ccc(O)cc1)NC(=O)[C@@H](Cc1c[nH]cn1)NC(=O)[C@H](N)CO)C(=O)N[C@H](CO)C(=O)N1CCC[C@@H]1C(=O)N[C@H](C)C(=O)N[C@H](CCC(N)=O)C(=O)N[C@H](CCCCN)C(=O)N[C@H](CCCCNC(=O)c1ccc2c(c1)C(=O)OC21c2ccc(O)cc2Oc2cc(O)ccc21)C(=O)O [ACI-88-Kϕ] (H-[dS][dH][dY][dR][dH][dI][dS][dP][dA][dQ][dK][dK](5FAM)-OH; N-terminus and C-terminus assumed) | *1.78 | 63.3 | 7.22e-3 | 0.0553 | 1.71e4 | 930 | 9.96 | submicromolar range
CC[C@@H](C)[C@@H](NC(=O)[C@@H](Cc1c[nH]cn1)NC(=O)[C@@H](CCCNC(=N)N)NC(=O)[C@@H](Cc1ccc(O)cc1)NC(=O)[C@@H](Cc1c[nH]cn1)NC(=O)[C@@H](CO)NC(=O)[C@H]1CCCN1)C(=O)N[C@H](CO)C(=O)N1CCC[C@@H]1C(=O)N[C@H](C)C(=O)N[C@H](CCC(N)=O)C(=O)N[C@H](CCCCN)C(=O)N[C@H](CCCCNC(=O)c1ccc2c(c1)C(=O)OC21c2ccc(O)cc2Oc2cc(O)ccc21)C(=O)O [ACI-89-Kϕ] (H-[dP][dS][dH][dY][dR][dH][dI][dS][dP][dA][dQ][dK][dK](5FAM)-OH; N-terminus and C-terminus assumed) | *1.49 | 19.4 | 0.162 | 0.0118 | 2.03e4 | 3.34e3 | 21.8 | –

— article PMC3404088, “Development of a Small D-Enantiomeric Alzheimer’s Amyloid-β Binding Peptide Ligand for Future In Vivo Imaging Applications” (PLoS ONE, 2012)
